Test results published in publication PMC10726354, “Design, Synthesis, and Biological Evaluation of Small-Molecule-Based Radioligands with Improved Pharmacokinetic Properties for Imaging of Programmed Death Ligand 1” (Journal of Medicinal Chemistry, 2023).
Several values for one entry are separate records, joined by “and”; a condition that tells them apart may be missing. Equal values may be shown once.

Legend:
[1] = molecular target: T1, PD-L1 (Homo sapiens, UniProt Q9NZQ7); assay: Real-time radioligand binding (LigandTracer) on PC3 PD-L1 cells; conditions: for fold change of real-time binding affinity in presence vs absence of BSA: in either direction; for Kd: real-time binding
T1 construct: expressed in transfected cells; host or cells: PC3 cells (human prostate carcinoma), stably transduced
T1 sequence (Q9NZQ7 19-290): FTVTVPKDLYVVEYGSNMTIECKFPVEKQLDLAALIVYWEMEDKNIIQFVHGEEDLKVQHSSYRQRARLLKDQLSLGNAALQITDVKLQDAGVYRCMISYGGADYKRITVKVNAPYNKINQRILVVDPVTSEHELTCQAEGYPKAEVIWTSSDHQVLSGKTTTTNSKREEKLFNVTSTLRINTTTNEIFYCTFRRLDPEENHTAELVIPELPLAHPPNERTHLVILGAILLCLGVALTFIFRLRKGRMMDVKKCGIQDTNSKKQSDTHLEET
Description: Real-time radioligand binding using the ligand tracer platform was performed, similar to our previously reported tracer candidates. As we aimed at reducing the albumin binding of the herein presented compounds, we performed measurements in the presence or absence of a mouse physiological concentration of BSA (2.5 g/dL).
For real-time binding to assess kinetics (association rate constant ka and dissociation rate constant kd) and dissociation constant (KD), LigandTracer (Yellow, Ridgeview Instruments AB, Sweden) was employed. Approximately 1.2 × 10^6 cells (in 3 mL medium) were seeded to one side of a Petri dish (Nunc) 1 day prior to experiments as described before.[45] Binding was then performed at room temperature (using CO2-independent medium, Gibco #18045088, Thermo Fisher Germany) with or without BSA (2.5%). First, association was determined by incubation with two concentrations (10 and 40 nM, 90 min each) of the ^64Cu-labeled PD-L1 ligands. Dissociation was then assessed by replacement with fresh medium for at least 2 h. Data were acquired in decay-corrected counts per second (CPS), and binding data were then evaluated using TraceDrawer (1.9.2, Ridgeview Instruments AB, Sweden). Traces were inspected for spikes and irregularities and then normalized to their own baseline (=0%) and highest value (=100%). Data were then fitted using a one-to-one interaction, accounting for the bulk effect.

[2] = tested on: PC3 PD-L1-overexpressing tumor; assay: Small-animal PET, uptake in PD-L1-overexpressing tumor; conditions: for SUVmax PC3 PD-L1 overexpressing tumor: tracer only; for SUVmax PC3 PD-L1 overexpressing tumor +block: blocker i.v. before tracer: Cu-1 100 nmol 1, Cu-2 100 nmol 2, Cu-3 1000 nmol 4, Cu-4 500 nmol 4, Cu-6 250 nmol 1 (~5 min prior), Cu-5 100 nmol 5 (~30 min prior)
Description: (§1) Changes are reported as % change of the SUVmax of the PD-L1 expressing over the respective value of the mock tumor. Similarly, the effect of blocking is reported as % change of the SUVmax of the animal injected with cold compound over that of the animal that received tracer only.
(§2) Animal experiments were performed in accordance with the guidelines of the German Regulations for Animal Welfare, approved by the Saxonian Ethical Committee for Animal Experiments (reference number DD24.1-5131/449/49). Male athymic NMRI-nude mice (Rj: NMRI-Foxn1^nu/nu, Janvier Laboratories, Le Genest-Saint-Isle, France) between 8 and 22 weeks of age were used. Under general anesthesia, [∼10% desflurane (Baxter, Deerfield, IL, USA) in 30 vol % oxygen + air] and warming, the animals were subcutaneously injected with 3–5 × 10^6 PC3-PD-L1 and PC3-mock cells [in 50 μL PBS +50 μL Matrigel (Corning, Glendale, USA)] into the right and left thigh, respectively. Tumor growth was monitored three times a week by caliper measurements, and mice with tumor sizes above 7 mm were included in the experiments.
(§3) For PET studies, general anesthesia was induced as described above. PET and X-ray computed tomography (CT) were performed in a dedicated small animal nanoScan PET/CT scanner, with four animals imaged simultaneously (Mediso, Budapest, Hungary). CT images were employed for attenuation correction and anatomical referencing. Animals received three individual scans corresponding to 0–2 h (dynamic) and 4.5 and 24 h (static) postinjection.
(§4) PD-L1 radiotracer candidates (in 300 μL sterile 0.9% NaCl/HEPES buffer, pH 6–7, between 7 and 12 MBq, molar activities > 12 GBq/μmol) were delivered over 30 s i.v. (lateral tail vein) and PET acquisition started simultaneously. For blocking condition, a defined quantity of compound (the same unlabeled compound, one from the same series or BMS-1166) was diluted in sterile saline and injected i.v. approximately 5 min prior to the radiotracer. Animals not subjected to blocking were injected with vehicle at the same time.
(§5) Three-dimensional list mode data were binned using the 400–600 keV energy window and sorted into 36 time frames (15 × 10 s, 5 × 30 s, 5 × 60 s, 4 × 300 s, 3 × 600 s, 4 × 900 s). Time frames were reconstructed using the Tera-TomoTM 3D algorithm applying a voxel size of 0.4 mm and corrections for decay, scatter, and attenuation.
(§6) Three-dimensional volumes of interest were delineated applying fixed thresholding at 35% of the measured maximum intensity. Standardized uptake values (SUV = [MBq detected activity/mL tissue]/[MBq injected activity/g body weight], […]) were determined in selected volumes of interest, among these PD-L1 and mock tumors.
(§7) 14. In vivo: PET- SUV data
(§8) Standardized uptake values (SUVmax)
(§9) Supplementary table 1: In vivo standardized uptake values (SUVmax ± standard deviation) of 64Cu-labeled third series compounds [64Cu]Cu-1-6 at 1.5 (1–2), 4.5 (4–5) and 24.5 (24–25) hours
(§10) post injection (p.i.). Compounds used for blocking are described for each tracer and were intravenously injected in sterile saline at stated time before the radiotracer. Animals designated for
(§11) tracer-only received matched type and volume of vehicle at the same time.

[3] = tested on: PC3 mock tumor; assay: Small-animal PET, uptake in mock tumor; conditions: for SUVmax PC3 mock tumor: tracer only; for SUVmax PC3 mock tumor +block: blocker i.v. before tracer: Cu-1 100 nmol 1, Cu-2 100 nmol 2, Cu-3 1000 nmol 4, Cu-4 500 nmol 4, Cu-6 250 nmol 1 (~5 min prior), Cu-5 100 nmol 5 (~30 min prior)
Description: as §1, §2, §3, §4, §5, §6, §7, §8, §9, §10, §11

[4] = Radiotracer production data: stability of the product to in vivo experiments; assay type: physicochemical
[5] = medium only (no BSA), n = 2, mean ± S.D.
[6] = medium only (no BSA), n = 2, mean ± S.D., room temperature
[7] = 1–2 h (1.5 h) p.i., blocker: Cu-3 1000 nmol 4, Cu-4 500/1000 nmol 4, Cu-5 100 nmol 5, Cu-6 250 nmol BMS-1166
[8] = 4–5 h (4.5 h) p.i., blocker: Cu-3 1000 nmol 4, Cu-4 500/1000 nmol 4, Cu-5 100 nmol 5, Cu-6 250 nmol BMS-1166

Cc1c(COc2cc(OCc3cncc(S(C)(=O)=O)c3)c(CN[C@@H](CS(=O)(=O)O)C(=O)NCCP(=O)(O)O)cc2Cl)cccc1-c1cccc(OCc2cn(CCCN3CCN(C(=O)[C@H](CS(=O)(=O)O)NC(=O)CC[C@H](C(=O)O)N4CCN(CC(=O)O)CCN(CC(=O)O)CC4)CC3)nn2)c1C.[64Cu+2] [[^64Cu]Cu-5]
fold change of real-time binding affinity in presence vs absence of BSA [1]: ≤ 2 fold
Bmax [normalized (%)] ([1]; medium + 2.5% BSA, n = 1): 219%
ka (association rate constant) ([1]; medium + 2.5% BSA, n = 1): 1130 M/s
Bmax [normalized (%)] [1, 5]: 446 ± 274%
ka (association rate constant) [1, 6]: (1.14 ± 0.60) × 10^3 (M s)^−1
Kd ([1]; medium + 2.5% BSA, n = 1): 100 nM
Kd [1, 5]: 110 ± 53 nM
blocking effect: % change of SUVmax in PD-L1 tumor vs tracer-only [2, 7]: −46%
% change of SUVmax of the PD-L1 expressing tumor over the mock tumor ([2]; 1–2 h p.i.): 306%
SUVmax PC3 PD-L1 overexpressing tumor ([2]; 1.5 (1–2) hours p.i.): 3.25
SUVmax PC3 PD-L1 overexpressing tumor ([2]; 1.5 (1–2) hours p.i., listed as [64Cu]Cu-5): 3.25 ± 0.25
SUVmax PC3 PD-L1 overexpressing tumor +block ([2]; 1.5 (1–2) hours p.i.): 1.75 ± 0.35
blocking effect: % change of SUVmax in PD-L1 tumor vs tracer-only [2, 8]: −6% and −5%
% change of SUVmax of the PD-L1 expressing tumor over the mock tumor ([2]; 4–5 h p.i.): +59%
SUVmax PC3 PD-L1 overexpressing tumor ([2]; 4.5 (4–5) hours p.i.): 1.75
SUVmax PC3 PD-L1 overexpressing tumor ([2]; 4.5 (4–5) hours p.i., listed as [64Cu]Cu-5): 1.75 ± 0.15
SUVmax PC3 PD-L1 overexpressing tumor +block ([2]; 4.5 (4–5) hours p.i.): 1.65 ± 0.15
blocking effect: % change of SUVmax in PD-L1 tumor vs tracer-only ([2]; 24–25 h (24.5 h) p.i., blocker: Cu-1, Cu-2 100 nmol unlabeled compound, Cu-3 1000 nmol 4, Cu-4 500/1000 nmol 4, Cu-5 100 nmol 5, Cu-6 250 nmol BMS-1166): +29%
% change of SUVmax of the PD-L1 expressing tumor over the mock tumor ([2]; 24–25 h p.i.): +14%
SUVmax PC3 PD-L1 overexpressing tumor ([2]; 24.5 (24–25) hours p.i.): 1.2
SUVmax PC3 PD-L1 overexpressing tumor ([2]; 24.5 (24–25) hours p.i., listed as [64Cu]Cu-5): 1.2 ± 0.8
SUVmax PC3 PD-L1 overexpressing tumor +block ([2]; 24.5 (24–25) hours p.i.): 1.55 ± 0.05
SUVmax PC3 mock tumor ([3]; 1.5 (1–2) hours p.i.): 0.80 ± 0.10
SUVmax PC3 mock tumor +block ([3]; 1.5 (1–2) hours p.i.): 0.75 ± 0.05
SUVmax PC3 mock tumor ([3]; 4.5 (4–5) hours p.i.): 1.1 ± 0.1
SUVmax PC3 mock tumor +block ([3]; 4.5 (4–5) hours p.i.): 0.85 ± 0.05
SUVmax PC3 mock tumor ([3]; 24.5 (24–25) hours p.i.): 1.05 ± 0.65
SUVmax PC3 mock tumor +block ([3]; 24.5 (24–25) hours p.i.): 1.6 ± 0.00
Stability of the product to in vivo experiments [4]: > 99%

Cc1c(COc2cc(OCc3cncc(S(C)(=O)=O)c3)c(CN[C@@H](CS(=O)(=O)O)C(=O)NCCP(=O)(O)O)cc2Cl)cccc1-c1cccc(OCc2cn(CCCN3CCN(C(=O)[C@H](CP(=O)(O)O)NC(=O)CC[C@H](C(=O)O)N4CCN(CC(=O)O)CCN(CC(=O)O)CC4)CC3)nn2)c1C.[64Cu+2] [[^64Cu]Cu-6]
fold change of real-time binding affinity in presence vs absence of BSA [1]: ≤ 2 fold
Bmax [normalized (%)] ([1]; medium + 2.5% BSA, n = 1): 65.3%
ka (association rate constant) ([1]; medium + 2.5% BSA, n = 1): 3590 M/s
Bmax [normalized (%)] [1, 5]: 107 ± 7.16%
ka (association rate constant) [1, 6]: (5.30 ± 0.52) × 10^3 (M s)^−1
Kd ([1]; medium + 2.5% BSA, n = 1): 41.4 nM
Kd [1, 5]: 22 nM and 22.2 nM
blocking effect: % change of SUVmax in PD-L1 tumor vs tracer-only [2, 7]: +25%
% change of SUVmax of the PD-L1 expressing tumor over the mock tumor ([2]; 1–2 h p.i.): 121%
SUVmax PC3 PD-L1 overexpressing tumor ([2]; 1.5 (1–2) hours p.i.): 1.83 ± 0.37
SUVmax PC3 PD-L1 overexpressing tumor +block ([2]; 1.5 (1–2) hours p.i.): 2.28 ± 0.46
blocking effect: % change of SUVmax in PD-L1 tumor vs tracer-only [2, 8]: +16%
SUVmax PC3 PD-L1 overexpressing tumor ([2]; 4.5 (4–5) hours p.i.): 1.55 ± 0.05
SUVmax PC3 PD-L1 overexpressing tumor +block ([2]; 4.5 (4–5) hours p.i.): 1.8 ± 0.3
SUVmax PC3 PD-L1 overexpressing tumor ([2]; 24.5 (24–25) hours p.i.): 2.2 ± 0.1
SUVmax PC3 PD-L1 overexpressing tumor +block ([2]; 24.5 (24–25) hours p.i.): 2.3 ± 0.4
blocking effect of BMS-1166 on SUVmax / tumor uptake ([2]; any time point, Cu-3: 750 nmol BMS-1166 intraperitoneally 60 min prior, Cu-6: 250 nmol BMS-1166 5 min before): no blocking effect
SUVmax PC3 mock tumor ([3]; 1.5 (1–2) hours p.i.): 0.83 ± 0.08
SUVmax PC3 mock tumor +block ([3]; 1.5 (1–2) hours p.i.): 1.04 ± 0.15
SUVmax PC3 mock tumor ([3]; 4.5 (4–5) hours p.i.): 1.35 ± 0.15
SUVmax PC3 mock tumor +block ([3]; 4.5 (4–5) hours p.i.): 1.7 ± 0.1
SUVmax PC3 mock tumor ([3]; 24.5 (24–25) hours p.i.): 2.2 ± 0.2
SUVmax PC3 mock tumor +block ([3]; 24.5 (24–25) hours p.i.): 3.05 ± 0.35
Stability of the product to in vivo experiments [4]: > 99%
